According to the supplement of paper PMC10307832:

What was measured:
Experiment in all cases: relative viability (nuclei count vs DMSO), 5 days (fraction); higher = more cells survive
NCI-H647 = test system: NCI-H647
How it was run: (§1)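 Lung cancer cell lines in 1536-well plates were dosed by pin tool the day after seeding, either with one drug alone or with a fixed anchor-drug dose plus five library-drug doses (not always all listed) in √10 steps. After 5 days, cells were fixed and their nuclei stained in one step (final 0.05% Triton X-100, 1% formaldehyde, 1 ug/ml Hoechst), then counted on 4× images. Relative viability is the nuclei count in treated wells divided by that in vehicle wells. Values are medians of duplicate plates.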

LC-2-ad = test system: LC-2-ad
How it was run: as §1

COR-L 105 = test system: COR-L 105
How it was run: as §1

H3255 = test system: H3255
How it was run: as §1

NCI-H520 = test system: NCI-H520
How it was run: as §1

NCI-H522 = test system: NCI-H522
How it was run: as §1

NCI-H650 = test system: NCI-H650
How it was run: as §1

PC-14 = test system: PC-14
How it was run: as §1

RERF-LC-KJ = test system: RERF-LC-KJ
How it was run: as §1

NCI-H322M = test system: NCI-H322M
How it was run: as §1

NCI-H2126 = test system: NCI-H2126
How it was run: as §1

NCI-H2405 = test system: NCI-H2405
How it was run: as §1

With Clc1ccc(Nc2nnc(Cc3ccncc3)c3ccccc23)cc1 [Vatalanib] + CC(=O)Nc1cccc(-n2c(=O)n(C3CC3)c(=O)c3c(Nc4ccc(I)cc4F)n(C)c(=O)c(C)c32)c1 [Trametinib] (partner 0.02 µM) the relative viability (NCI-H647; first compound 0.04 µM) was 0.538, the relative viability (NCI-H647; first compound 0.1265 µM) was 0.614 and the relative viability (NCI-H647; first compound 0.4 µM) was 0.581. It also gave a relative viability (NCI-H647; first compound 1.265 µM) of 0.407, a relative viability (NCI-H647; first compound 4 µM) of 0.499 and a relative viability (LC-2-ad; first compound 0.04 µM) of 0.97. It also gave a relative viability (LC-2-ad; first compound 0.1265 µM) of 0.77, a relative viability (LC-2-ad; first compound 0.4 µM) of 0.965 and a relative viability (LC-2-ad; first compound 1.265 µM) of 0.919. It also gave a relative viability (LC-2-ad; first compound 4 µM) of 0.892, a relative viability (COR-L 105; first compound 0.04 µM) of 0.451 and a relative viability (COR-L 105; first compound 0.1265 µM) of 0.363. For the same compound, the relative viability (COR-L 105; first compound 0.4 µM) was 0.427, the relative viability (COR-L 105; first compound 1.265 µM) was 0.443 and the relative viability (COR-L 105; first compound 4 µM) was 0.426. It also gave a relative viability (H3255; first compound 0.04 µM) of 0.563, a relative viability (H3255; first compound 0.1265 µM) of 0.606 and a relative viability (H3255; first compound 0.4 µM) of 0.57. The relative viability (H3255; first compound 1.265 µM) was 0.583, the relative viability (H3255; first compound 4 µM) was 0.58 and the relative viability (NCI-H520; first compound 0.04 µM) was 0.794. For the same compound, the relative viability (NCI-H520; first compound 0.1265 µM) was 0.654, the relative viability (NCI-H520; first compound 0.4 µM) was 0.766 and the relative viability (NCI-H520; first compound 1.265 µM) was 0.615. It also gave a relative viability (NCI-H520; first compound 4 µM) of 0.602, a relative viability (NCI-H522; first compound 0.04 µM) of 0.73 and a relative viability (NCI-H522; first compound 0.1265 µM) of 0.714. It also gave a relative viability (NCI-H522; first compound 0.4 µM) of 0.714, a relative viability (NCI-H522; first compound 1.265 µM) of 0.754 and a relative viability (NCI-H522; first compound 4 µM) of 0.882. For the same compound, the relative viability (NCI-H650; first compound 0.04 µM) was 0.941, the relative viability (NCI-H650; first compound 0.1265 µM) was 0.796 and the relative viability (NCI-H650; first compound 0.4 µM) was 0.997. It also gave a relative viability (NCI-H650; first compound 1.265 µM) of 0.924, a relative viability (NCI-H650; first compound 4 µM) of 0.904 and a relative viability (PC-14; first compound 0.04 µM) of 0.671. The relative viability (PC-14; first compound 0.1265 µM) was 0.826, the relative viability (PC-14; first compound 0.4 µM) was 0.991 and the relative viability (PC-14; first compound 1.265 µM) was 0.738. For the same compound, the relative viability (PC-14; first compound 4 µM) was 0.6, the relative viability (RERF-LC-KJ; first compound 0.04 µM) was 0.931 and the relative viability (RERF-LC-KJ; first compound 0.1265 µM) was 0.867. It also gave a relative viability (RERF-LC-KJ; first compound 0.4 µM) of 0.903, a relative viability (RERF-LC-KJ; first compound 1.265 µM) of 0.791 and a relative viability (RERF-LC-KJ; first compound 4 µM) of 0.782. For the same compound, the relative viability (NCI-H322M; first compound 0.04 µM) was 0.416, the relative viability (NCI-H322M; first compound 0.1265 µM) was 0.51 and the relative viability (NCI-H322M; first compound 0.4 µM) was 0.552. For the same compound, the relative viability (NCI-H322M; first compound 4 µM) was 0.517, the relative viability (NCI-H2126; first compound 0.04 µM) was 0.539 and the relative viability (NCI-H2126; first compound 0.1265 µM) was 0.612. For the same compound, the relative viability (NCI-H2126; first compound 0.4 µM) was 0.591, the relative viability (NCI-H2126; first compound 1.265 µM) was 0.528 and the relative viability (NCI-H2126; first compound 4 µM) was 0.536. The relative viability (NCI-H2405; first compound 0.04 µM) was 0.696, the relative viability (NCI-H2405; first compound 0.1265 µM) was 0.568 and the relative viability (NCI-H2405; first compound 0.4 µM) was 0.683. For the same compound, the relative viability (NCI-H2405; first compound 4 µM) was 0.557.
